How the values were obtained:
Assay type in all cases: biochemical, B. subtilis
[1] = molecular target: T1, GR-N75L (Bacillus subtilis, UniProt P94556, N75L); assay: Coupled-enzyme IC50 assay; conditions: N75L mutation
T1 sequence (P94556 1-272 N75L): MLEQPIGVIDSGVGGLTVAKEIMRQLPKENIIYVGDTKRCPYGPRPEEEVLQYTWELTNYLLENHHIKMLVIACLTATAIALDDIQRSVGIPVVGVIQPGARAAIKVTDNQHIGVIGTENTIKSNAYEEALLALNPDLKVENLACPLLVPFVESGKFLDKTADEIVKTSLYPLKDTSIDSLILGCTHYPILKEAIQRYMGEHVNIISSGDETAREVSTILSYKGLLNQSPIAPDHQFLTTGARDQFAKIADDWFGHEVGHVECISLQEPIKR

[2] = molecular target: T2, GR-N75A (Bacillus subtilis, UniProt P94556, N75A); assay: Coupled-enzyme IC50 assay; conditions: N75A mutation
T2 sequence (P94556 1-272 N75A): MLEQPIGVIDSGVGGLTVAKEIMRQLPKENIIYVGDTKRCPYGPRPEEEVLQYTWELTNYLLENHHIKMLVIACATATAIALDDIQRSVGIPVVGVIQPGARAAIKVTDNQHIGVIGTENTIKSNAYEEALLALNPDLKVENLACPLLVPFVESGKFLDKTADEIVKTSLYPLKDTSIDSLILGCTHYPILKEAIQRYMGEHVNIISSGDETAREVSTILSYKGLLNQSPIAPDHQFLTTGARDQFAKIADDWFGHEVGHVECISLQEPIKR

[3] = molecular target: T2, GR-N75A; assay: Steady-state kinetics of D- to L- racemization by circular dichroism at 220 nm
[4] = molecular target: T1, GR-N75L; assay: as above
[5] = substrate: N[C@H](CCC(=O)O)C(=O)O; assay: as above; conditions: other: GR-WT, 25 °C, pH 8.0

With O=S(=O)(O)c1nc2ccccc2[nH]1 [Compound 1, 1H-benzimidazole-2-sulfonic acid] the “increase in IC50 compared to the IC50 for wild-type GR” value [1] was 50% and the “increase in IC50 compared to the IC50 for wild-type GR” value [2] was 600%.

In the case of N[C@H](CCC(=O)O)C(=O)O [Compound 3, D-glutamate], the kcat [3] is reported as 45.6 ± 1.9 s⁻¹, the Km ([3]; 25 °C) is reported as 730 ± 90 µM and the kcat [4] is reported as 0.15 ± 0.01 s⁻¹. It also gave a Km ([4]; 25 °C) of 490 ± 100 µM.

B1: GR-WT (Bacillus subtilis subsp. subtilis str. 168) (protein)
chain: MLEQPIGVIDSGVGGLTVAKEIMRQLPKENIIYVGDTKRCPYGPRPEEEVLQYTWELTNYLLENHHIKMLVIACNTATAIALDDIQRSVGIPVVGVIQPGARAAIKVTDNQHIGVIGTENTIKSNAYEEALLALNPDLKVENLACPLLVPFVESGKFLDKTADEIVKTSLYPLKDTSIDSLILGCTHYPILKEAIQRYMGEHVNIISSGDETAREVSTILSYKGLLNQSPIAPDHQFLTTGARDQFAKIADDWFGHEVGHVECISLQEPIKR
B1 was tested, and the kcat [5] was 1.64 ± 0.03 s⁻¹ and the kcat/Km [5] was 12600 ± 80 M⁻¹ s⁻¹.
